In patent US11103548B2, “Treatment of endometriosis, angiogenesis and/or endometrial lesion growth” (priority 2013, dated 2021):
No end group written: not given here. *: point of attachment. FITC = O=C1OC2(c3ccc(O)cc3Oc3cc(O)ccc32)c2ccc(NC(=S)*)cc21

How the values were obtained:
[1] = biological target: T1, SNCG (Homo sapiens, UniProt O76070); test: co-immunoprecipitation (co-IP) of peptide with SNCG in MCF7-SNCG cells; type: binding; conditions: FITC tagged peptide, 8 hour after treatment, IP with anti-SNCG antibody, western blot with anti-FITC antibody
T1 construct: expressed in transfected cells; host or cells: MCF7-SNCG cells
Procedure: In vivo binding of ST011 to SNCG was examined in co-immunoprecipitation (co-IP) experiments (See FIG. 1). MCF7-SNCG cells were treated with FITC tagged […] (TAT)-ST011 (SEQ ID NO: 10) (lane 1 of FIG. 1), or FITC tagged YGRKKRRQRRR (TAT) alone (SEQ ID NO: 11) (lane 2 of FIG. 1) or no treatment control (lane 3 of FIG. 1). 8 hour after treatment, cell lysates were prepared and IP with anti-SNCG antibody was conducted. The presence of TAT-ST011 in SNCG IP complexes obtained from different treated cells was detected by western blot using anti-FITC antibody. […] Thus, FIG. 1 provides further evidence that SNCG is capable of immunoprecipitating TAT-ST011.

[2] = system: fertility of the animals; test: fertility by mating in humanized animal models of endometriosis after treatment; type: in vivo; conditions: mating after endometriosis is inhibited and treatment is stopped
Procedure: The ability of ST011 to inhibit endometriosis without effecting fertility can be confirmed in, for example, animal model of endometriosis. For these experiments, humanized animal models of endometriosis first can be treated with ST011 and once endometriosis is inhibited and treatment is stopped, fertility of the animals is tested by mating.

[3] = system: HUVECs; test: WST-1 proliferation assay; type: cell-based; conditions: 600 ng/mL to 2.5 ng/mL, 48 hours of treatment, PBS control
Procedure: Endothelial cells are an integral part of blood vessels and the proliferation of endothelial cells is extremely important for angiogenesis. Therefore, to assess the role of α-synuclein in endothelial cell proliferation, HUVECs were plated and treated with various concentrations of TATST011 peptide GNSALHVASQHG (SEQ ID NO: 2) ranging from 600 ng/mL to 2.5 ng/mL using PBS as a control. In order to measure the effect of TAT-ST011 peptide GNSALHVASQHG (SEQ ID NO: 2) on HUVEC proliferation a WST-1 proliferation assay was performed.
HUVECs and epithelial cells were trypsinized, suspended in cultured medium and counted. Approximately 10,000 cells per well were seeded onto a 96 well plate. After allowing 24 hours for attachment in 37° C., the cells were treated with either 600 ng/mL, 300 ng/mL, 150 ng/mL, 5 ng/mL or 2.5 ng/mL of TAT-P12 using phosphate buffer saline (PBS, (Sigma Chemical Co., St. Louis, Mo., USA) as a control. The drug was suspended in RPMI. The plates were incubated in 37° C. for 24 or 48 hours after which 10 μL of WST-1 (Roche, Laval, QC, Canada) was added to each well. The plate was then incubated in 37° C. for another 4 hours. The absorbance of the wells was measured at a wavelength of 490 nm or at 510 nm.

[4] = system: CRL 7566 cells; test: intracellular permeability by fluorescent microscopy; type: cell-based; conditions: 20 micro molar FITC tagged peptide, after 6 hours
Procedure: To further examine the utility of the ST011 peptide as a therapeutic tool against angiogenesis, endometriosis and/or endometrial lesion growth, this peptide was further examined to observe its intracellular permeability in endometrial cells. For these experiments, GYGRKKRRQRRR (TAT) tagged GNSALHVASQHG (ST011) (SEQ ID NO: 10) and a control peptide GYGRKKRRQRRR (TAT CTL; SEQ ID NO: 11) were chemically synthesized. Each peptide contained FITC on its N-terminal end. These peptides were dissolved in 2% DMSO in PBS (pH 7.3) and applied directly on the Petri dish containing model cells (CRL 7566 or HUVECs) at required concentrations. Active internalization of peptide was observed using fluorescent microscopy. Three independent experiments were performed with duplicates of each condition. Model cell line for endometriosis, CRL 7566 cells (FIG. 2) received 20 micro molar FITC tagged TAT-ST011. After 6 hours cells were examined under fluorescent microscope.

[5] = system: HUVECs; test: in vitro angiogenic tube formation on gel matrix; type: cell-based
Procedure: Next, effect of TAT-ST011 peptide GNSALHVASQHG (SEQ ID NO: 2) on angiogenesis and tube formation of HUVEC cell was evaluated.
Extracellular matrix gel solution (Cell biolabs inc, San Diego, Calif., USA) had been thawed overnight at 4° C. and approximately […] of ECM gel solution was added to each well of a 96 well plate. The plate was incubated at 37° C. for 1 hour. HUVECs were trypsinized from culture and approximately 20,000 cells were added per well to the ECM containing 96 well plate. Each well was treated with […] of TAT-P12 at a concentration of 600 ng/mL, 300 ng/mL, 150 ng/mL, 5 ng/mL or 2.5 ng/mL. PBS was used as a control. The tube formation was visualized using a spinning disc confocal microscope and the images were stacked together using ImageJ.

[6] = system: human endometriotic lesions; test: mouse xenograft model of endometriosis, gross observation of lesion growth and vascularization; type: in vivo, mice; conditions: 20 mg/kg daily intraperitoneal for 21 days, necropsy one week after treatment, versus saline
Procedure: Gross observation of endometriotic lesion growth and vascularization in vivo was performed using an animal model. […] The peritoneal cavity of the mice was exposed using surgical tools and the endometriotic lesions were located manually.
A mouse xenograft model was developed using Rag2^−/−/I12rg^−/− double knockout mice on a BalbC background.
Since human estrogen is important for the growth of human endometriotic lesions the mice (n=12) had 60-day release 13-estradiol 17-acetate pellets (15 mg/pellet) (Innovative Research of America, Sarasota, Fla., USA) subcutaneously implanted. The mice were anaesthetized with isofluorane (Pharmaceutical Partners of Canada, Richmond Hill, ON, Canada).
Five days after the implantation of the estrogen 5 pellet, eutopic endometrium obtained from hysterectomy and endometrial biopsies performed at Kingston General Hospital was implanted in the peritoneal cavity of the mice. The obtained endometrium was cut into equal pieces and washed with PBS. The pieces of endometrium were kept in PBS on ice until the surgeries were performed. The mice were anaesthetized in an isofluorane chamber and a small incision was made in their abdomen. Two to three lesions were adhered on the left side of the peritoneal cavity using Vetbond tissue adhesive (3M, St. Paul, Minn., USA) and one or two pieces were dropped freely in the cavity. […]

T1 sequence (O76070 whole entry): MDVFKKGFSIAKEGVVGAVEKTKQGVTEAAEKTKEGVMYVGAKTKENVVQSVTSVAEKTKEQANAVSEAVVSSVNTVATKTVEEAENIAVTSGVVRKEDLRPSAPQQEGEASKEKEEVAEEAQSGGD

Substance: GYGRKKRRQRRR ({FITC}-GYGRKKRRQRRR) [TAT alone, control peptide … (TAT CTL, reference compound]
- co-precipitation with SNCG (binding to SNCG) [1]: not TAT alone is found to co-precipitate with SNCG

Substance: Ac-GNSALHVASQHG-NH2 [ST011 peptide, GNSALHVASQHG]
- effect on fertility of the animals [2]: no effect of ST011 peptide on the fertility

Substance: GYGRKKRRQRRR (TAT) tagged GNSALHVASQHG (ST011) [TAT-ST011]
- proliferation of HUVECs [3]: dose dependently decreased the proliferation of HUVECs
- internalization of peptide into endometrial cells [4]: capable of going inside endometrial cells
- morphology of the HUVECs (cell lysis) ([5]; 300 ng/mL and 600 ng/mL): caused the cells to lyse
- concentration that inhibited tube formation and also changed the morphology of the HUVECs ([5]; HUVECs on gel matrix): ≥ 5 ng/mL
- tube formation / branching of HUVECs ([5]; various concentrations (600 to 2.5 ng/mL), confocal microscopy): dose dependent inhibition of tube formation
- endometriotic lesion growth [6]: inhibited growth of lesion
- vascularization of the lesions [6]: prevented the formation of blood vessels to the lesions
- co-precipitation with SNCG (binding to SNCG) [1]: co-precipitate with SNCG
